# Measurements published in ChEMBL document CHEMBL5215012, “Daphnepedunins A-F, Anti-HIV Macrocyclic Daphnane Orthoester Diterpenoids from Daphne pedunculata” (J Nat Prod, 2022).
# pIC50: −log10 of the molar value.
# How the values were obtained:
# MT4 = assay: Cytotoxicity against human MT4 cells assessed as reduction in cell viability by celltiter-glo luminescent cell viability assay; type: toxicity, cell-based
# [1] = system: Human immunodeficiency virus 1; assay: Anti-HIV activity against HIV-1 NL4-3 Nanoluc-sec virus infected in human MT4 cells assessed as viral growth inhibition by measuring luciferase activity measured after 3 days post-infection by Nano-Glo luciferase assay; type: functional, organism-based; conditions: Human immunodeficiency virus 1, NL4-3, MT4, 72 h
SMILES,CC50 (MT4) [nM],pIC50 [1]
C=C(C)[C@]12C[C@@H](C)[C@]34OC5(CCCCCCC[C@H](C)[C@@H]6[C@@H]3[C@]3(O[C@]6(C)OC3=O)[C@H](O)[C@@]3(CO)O[C@H]3[C@H]4[C@H]1O5)O2,> 38500,6.73
C=C(C)[C@]12C[C@@H](C)[C@]34OC5(CCCCCCC[C@@H](C)[C@@H]6[C@@H]3[C@]3(O[C@]6(C)OC3=O)[C@H](O)[C@@]3(CO)O[C@H]3[C@H]4[C@H]1O5)O2,,6.64
C=C(C)[C@]12C[C@@H](COC(=O)c3ccccc3)[C@]34OC5(CCCCCCC[C@H](C)[C@@H]6[C@@H]3[C@]3(O[C@]6(C)OC3=O)[C@H](O)[C@@]3(CO)O[C@H]3[C@H]4[C@H]1O5)O2,18800,6.03
C=C(C)[C@]12C[C@@H](COC(=O)c3ccccc3)[C@@]34OC5(O[C@@H]1[C@@H]3[C@@H]1O[C@]1(CO)[C@@H](O)[C@@]1(O)[C@H]4[C@H]([C@H](C)[C@@H]1OC(=O)c1ccccc1)[C@H](C)CCCCCC[C@H]5O)O2,> 6500,9.82
C=C(C)[C@]12C[C@@H](COC(=O)c3ccccc3)[C@@]34OC5(CCCCCCC[C@@H](C)[C@H]6[C@H](C)C(=O)[C@@](O)([C@H](O)[C@@]7(CO)O[C@H]7[C@H]3[C@H]1O5)[C@@H]64)O2,> 38500,7.15
C=C(C)[C@]12C[C@@H](C)[C@@]34O[C@]5(CCCCCCC[C@H](C)[C@H]6[C@H](C)C(=O)[C@@](O)([C@H](O)[C@@]7(CO)O[C@H]7[C@H]3[C@H]1O5)[C@@H]64)O2,,7.09
C=C(C)[C@]12C[C@@H](C)[C@]34OC5(CCCCCCC[C@H](C)[C@@H]6[C@@H]3[C@@](O)(C(=O)[C@@]6(C)O)[C@H](O)[C@@]3(CO)O[C@H]3[C@H]4[C@H]1O5)O2,24200,6.97
C=C(C)[C@]12C[C@@H](C)[C@]34OC5(CCCCCCC[C@@H](C)[C@@H]6[C@@H]3[C@@](O)(C(=O)[C@@]6(C)O)[C@H](O)[C@@]3(CO)O[C@H]3[C@H]4[C@H]1O5)O2,> 6500,7.04
C=C(C)[C@]12C[C@@H](C)[C@@]34OC5(CCCCCCC[C@@H](C)[C@H]6[C@H](C)C(=O)[C@@](O)([C@H](O)[C@@]7(CO)O[C@H]7[C@H]3[C@H]1O5)[C@@H]64)O2,> 6500,7.41
C=C(C)[C@]12C[C@@H](C)[C@@]34OC5(CCCCCCCC[C@H]6[C@H](C)C(=O)[C@@](O)([C@H](O)[C@@]7(CO)O[C@H]7[C@H]3[C@H]1O5)[C@@H]64)O2,> 6500,7.44
C=C(C)[C@]12C[C@@H](COC(=O)c3ccccc3)[C@@]34OC5(CCCCC[C@@H](O)C[C@@H](C)[C@H]6[C@H](C)C(=O)[C@@](O)([C@H](O)[C@@]7(CO)O[C@H]7[C@H]3[C@H]1O5)[C@@H]64)O2,> 6500,7.16
C=C(C)[C@]12C[C@@H](COC(=O)c3ccccc3)[C@]34OC5(CCCCC[C@@H](OC(=O)c6ccccc6)C[C@@H](C)[C@@H]6[C@@H]3[C@]3(O[C@]6(C)OC3=O)[C@H](O)[C@@]3(CO)O[C@H]3[C@H]4[C@H]1O5)O2,5300,6.37
C=C(C)[C@]12C[C@@H](COC(=O)c3ccccc3)[C@]34OC5(CCCCCCC[C@@H](C)[C@@H]6[C@@H]3[C@]3(O[C@]6(C)OC3=O)[C@H](O)[C@@]3(CO)O[C@H]3[C@H]4[C@H]1O5)O2,21700,6.00
